Measurements: BindingDB's records for patent US9695170 (FibroGen Inc, 2017)

Target: Egl nine homolog 1 (Homo sapiens, UniProt Q9GZT9)
Assay: HIF-PH Assay
Details: pH 7.4
Description: Ketoglutaric acid α-[1-14C]-sodium salt, alpha-ketoglutaric acid sodium salt, and HPLC purified peptide may be obtained from commercial sources, e.g., Perkin-Elmer (Wellesley Mass.), Sigma-Aldrich, and SynPep Corp. (Dublin Calif.), respectively. […] For example, a HIF peptide for use in the HIF-PH assay is [methoxycoumarin]-[…]-amide. HIF-PH, e.g., HIF-PH2 (EGLN1), can be expressed in, e.g., insect Hi5 cells, and partially purified, e.g., through a SP ion exchange chromatography column. […] Reactions are initiated by addition of HIF-PH enzyme.

Egl nine homolog 1, sequence (Q9GZT9 whole entry): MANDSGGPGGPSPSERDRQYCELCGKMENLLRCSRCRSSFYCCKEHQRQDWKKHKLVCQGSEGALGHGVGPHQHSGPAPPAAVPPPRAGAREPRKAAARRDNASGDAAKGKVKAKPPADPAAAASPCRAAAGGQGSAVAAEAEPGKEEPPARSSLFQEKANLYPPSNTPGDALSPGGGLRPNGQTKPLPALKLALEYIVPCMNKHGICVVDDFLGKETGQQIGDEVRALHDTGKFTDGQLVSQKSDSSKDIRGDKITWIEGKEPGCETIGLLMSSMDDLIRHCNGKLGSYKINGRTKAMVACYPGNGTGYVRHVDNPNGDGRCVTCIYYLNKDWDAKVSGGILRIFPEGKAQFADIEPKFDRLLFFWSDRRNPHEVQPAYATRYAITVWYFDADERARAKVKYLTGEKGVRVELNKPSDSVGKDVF

Row | IC50 | Structure (SMILES)
1 | 134 µM | COC(=O)NCCNC(=O)c1nc(C#N)c2ccc(=O)n(Cc3ccccc3)c2c1O [US9695170 95]
2 | 137 µM | COC(=O)NCCNC(=O)c1ncc2ccc(=O)n(Cc3ccccc3)c2c1O [US9695170 96]
3 | 176 µM | Cc1ccncc1-c1nc(C(=O)NCCC(=O)O)c(O)c2cc(-c3ccccc3)c(=O)n(Cc3ccccc3)c12 [US9695170 179]
